Measured values reported in PubChem BioAssay AID1963871 (Molecular Pharmacology Branch, DTP, NCI, 2024).

System: KRAS-mutant PDC multicell tumor spheroid viability
Experiment: Anticancer human tumor 521955-158-R2-J5-PDC patient-derived pancreatic carcinoma cell line growth inhibition [KRAS2]
Settings: for IC50: curve of first compound; for viability, T/C: stronger effect = lower value
In short: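 KRAS-mutant tumor cells were grown as spheroids with HUVEC endothelial cells and human MSCs as stroma. Targeted agents were tested alone and with KRAS pathway inhibitors. Doses started at or near clinical Cmax, or 10 microM, descending half-log.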

[1] = second compound 0.1 µM, first compound 0.00316 µM
[2] = second compound 0.1 µM, first compound 0.01 µM
[3] = second compound 0.1 µM, first compound 0.0316 µM
[4] = second compound 0.1 µM, first compound 0.1 µM
[5] = second compound 0.316 µM, first compound 0.00316 µM
[6] = second compound 0.316 µM, first compound 0.01 µM
[7] = second compound 0.316 µM, first compound 0.0316 µM
[8] = second compound 0.316 µM, first compound 0.1 µM
[9] = second compound 1 µM, first compound 0.00316 µM
[10] = second compound 1 µM, first compound 0.01 µM
[11] = second compound 1 µM, first compound 0.0316 µM
[12] = second compound 1 µM, first compound 0.1 µM
[13] = second compound 3.16 µM, first compound 0.00316 µM
[14] = second compound 3.16 µM, first compound 0.01 µM
[15] = second compound 3.16 µM, first compound 0.0316 µM
[16] = second compound 3.16 µM, first compound 0.1 µM
[17] = second compound 0.1 µM, first compound 0.000316 µM
[18] = second compound 0.1 µM, first compound 0.001 µM
[19] = second compound 0.316 µM, first compound 0.000316 µM
[20] = second compound 0.316 µM, first compound 0.001 µM
[21] = second compound 1 µM, first compound 0.000316 µM
[22] = second compound 1 µM, first compound 0.001 µM
[23] = second compound 3.16 µM, first compound 0.000316 µM
[24] = second compound 3.16 µM, first compound 0.001 µM
[25] = second compound 10 µM, first compound 0.000316 µM
[26] = second compound 10 µM, first compound 0.001 µM
[27] = second compound 10 µM, first compound 0.00316 µM
[28] = second compound 10 µM, first compound 0.01 µM
[29] = second compound 10 µM, first compound 0.0316 µM
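Note: viability read after seven days of drug exposure.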

Structure (SMILES)	IC50 (second compound 0.1 µM) [nM]	IC50 (second compound 0.316 µM) [nM]	IC50 (second compound 1 µM) [nM]	IC50 (second compound 3.16 µM) [nM]	viability, T/C [1] [%]	viability, T/C [2] [%]	viability, T/C [3] [%]	viability, T/C [4] [%]	viability, T/C [5] [%]	viability, T/C [6] [%]	viability, T/C [7] [%]	viability, T/C [8] [%]	viability, T/C [9] [%]	viability, T/C [10] [%]	viability, T/C [11] [%]	viability, T/C [12] [%]	viability, T/C [13] [%]	viability, T/C [14] [%]	viability, T/C [15] [%]	viability, T/C [16] [%]	also measured
CCN1CCN(Cc2ccc(Nc3ncc(F)c(-c4cc(F)c5nc(C)n(C(C)C)c5c4)n3)nc2)CC1 + C=CC(=O)N1CCN(c2nc(OCC3CCCN3C)nc3c2CCN(c2cccc4cccc(C)c24)C3)CC1CC#N	> 1000	> 1000	> 1000	< 3.16	102	94.2	87.5	95.8	85.3	106	90	72.3	89.3	78.3	80.6	82.5	19.2	19.5	16	11.1	IC50 (second compound 0.0316 µM): > 1000 nM; viability, T/C (second compound 0.0316 µM, first compound 0.00316 µM): 93.5%; viability, T/C (second compound 0.0316 µM, first compound 0.01 µM): 107%; viability, T/C (second compound 0.0316 µM, first compound 0.0316 µM): 91.8%; viability, T/C (second compound 0.0316 µM, first compound 0.1 µM): 85.9%; viability, T/C (second compound 0.0316 µM, first compound 0.316 µM): 110%; viability, T/C (second compound 0.0316 µM, first compound 1 µM): 83.6%; viability, T/C (second compound 0.1 µM, first compound 0.316 µM): 106%; viability, T/C (second compound 0.1 µM, first compound 1 µM): 84.8%; viability, T/C (second compound 0.316 µM, first compound 0.316 µM): 104%; viability, T/C (second compound 0.316 µM, first compound 1 µM): 90%; viability, T/C (second compound 1 µM, first compound 0.316 µM): 84.6%; viability, T/C (second compound 1 µM, first compound 1 µM): 81.9%; viability, T/C (second compound 3.16 µM, first compound 0.316 µM): 4.58%; viability, T/C (second compound 3.16 µM, first compound 1 µM): 0.34%
CC(=O)Nc1cccc(-n2c(=O)n(C3CC3)c(=O)c3c(Nc4ccc(I)cc4F)n(C)c(=O)c(C)c32)c1 + CC1OCC2(CCN(c3cnc(Sc4ccnc(N)c4Cl)c(N)n3)CC2)C1N	0.146	< 0.1	< 0.1	< 0.1	25.3	21.4	13.1		22.7	18.1	12.4		24.2	16.8	9.6		21.1	15.3	12.7		IC50 (second compound 10 µM): < 0.1 nM; viability, T/C (second compound 0.1 µM, first compound 0.0001 µM): 59%; viability, T/C [17]: 29.4%; viability, T/C [18]: 29.3%; viability, T/C (second compound 0.316 µM, first compound 0.0001 µM): 44.9%; viability, T/C [19]: 32.9%; viability, T/C [20]: 25.4%; viability, T/C (second compound 1 µM, first compound 0.0001 µM): 40.3%; viability, T/C [21]: 35.8%; viability, T/C [22]: 26.9%; viability, T/C (second compound 3.16 µM, first compound 0.0001 µM): 40.9%; viability, T/C [23]: 32.5%; viability, T/C [24]: 25.2%; viability, T/C (second compound 10 µM, first compound 0.0001 µM): 39.9%; viability, T/C [25]: 34%; viability, T/C [26]: 23.3%; viability, T/C [27]: 18.5%; viability, T/C [28]: 15.1%; viability, T/C [29]: 11.6%
CN(C)C/C=C/C(=O)Nc1cc2c(Nc3ccc(F)c(Cl)c3)ncnc2cc1O[C@H]1CCOC1 + C=CC(=O)N1CCN(c2nc(=O)n(-c3c(C)ccnc3C(C)C)c3nc(-c4c(O)cccc4F)c(F)cc23)C(C)C1	> 100	> 100	> 100	> 100	93.8	97.2	98.6	80.5	103	88.5	90.6	76.7	99.8	84.9	85.2	71	89.5	77	59.4	69.2	IC50 (second compound 10 µM): 75.8 nM; viability, T/C [17]: 124%; viability, T/C [18]: 118%; viability, T/C [19]: 133%; viability, T/C [20]: 134%; viability, T/C [21]: 120%; viability, T/C [22]: 120%; viability, T/C [23]: 99.4%; viability, T/C [24]: 104%; viability, T/C [25]: 67.4%; viability, T/C [26]: 72.4%; viability, T/C [27]: 55.7%; viability, T/C [28]: 57.5%; viability, T/C [29]: 51.9%; viability, T/C (second compound 10 µM, first compound 0.1 µM): 49.7%
